Values after ≈ are worked out from the molar mass of the structure shown.
Columns and labels:
Assay in all cases: In vitro antibacterial evaluation: minimum inhibitory concentration (MIC), broth dilution method
Format in all cases: cell-based
Staphylococcus sp. = details: for MIC Staphylococcus aureus (ATCC 29213) / MIC Staphylococcus aureus (GC 1131) / MIC Staphylococcus aureus (GC 3051) / MIC Staphylococcus aureus (GC 3053) / MIC Staphylococcus aureus (GC 4541) / MIC Staphylococcus aureus (GC 4542) / MIC Staphylococcus aureus (GC 4544) / MIC Staphylococcus aureus (GC 4545): broth dilution, 18 hours at 35° C.
Outline: (§1)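 Susceptibility determined by NCCLS-recommended broth dilution (M7-A2), Muller-Hinton II […]. Concentration span 64-0.06 μg/mL, inoculum 5×10^5 CFU/mL. Isolates include strains resistant to methicillin, penicillin and/or vancomycin.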

Escherichia coli = test system: Escherichia coli
Outline: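 Using Muller-Hinton II […] and an inoculum of 5×10^5 CFU/mL, antibiotic dilutions from 64 down to 0.06 μg/mL were tested following NCCLS M7-A2. The MIC is the lowest concentration inhibiting growth, including in methicillin-, penicillin- or vancomycin-resistant clinical isolates.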

Streptococcus sp. = test system: Streptococcus sp.
Outline: as §1

Enterococcus sp. = test system: Enterococcus sp.
Outline: as §1

[1] = broth dilution, inoculum 5×10^5 CFU/mL, 18 hours at 35° C.

MIC Staphylococcus aureus (ATCC 29213) (Staphylococcus sp.; 5×10^5 CFU/mL): 4 µg/mL (≈ 2.6 µM) | MIC Staphylococcus aureus (GC 1131) (Staphylococcus sp.; 5×10^5 CFU/mL): 8 µg/mL (≈ 5.21 µM) | MIC Staphylococcus aureus (GC 3051) (Staphylococcus sp.; 5×10^5 CFU/mL): 2 µg/mL (≈ 1.3 µM) | MIC Staphylococcus aureus (GC 3053) (Staphylococcus sp.; 5×10^5 CFU/mL): 2 µg/mL (≈ 1.3 µM) | MIC Staphylococcus aureus (GC 4541) (Staphylococcus sp.; 5×10^5 CFU/mL): 8 µg/mL (≈ 5.21 µM) | MIC Staphylococcus aureus (GC 4542) (Staphylococcus sp.; 5×10^5 CFU/mL): 4 µg/mL (≈ 2.6 µM) | MIC Staphylococcus aureus (GC 4544) (Staphylococcus sp.; 5×10^5 CFU/mL): 4 µg/mL (≈ 2.6 µM) | MIC Staphylococcus aureus (GC 4545) (Staphylococcus sp.; 5×10^5 CFU/mL): 4 µg/mL (≈ 2.6 µM) | MIC Staphylococcus aureus (ATCC 29213) (Staphylococcus sp.; strain ATCC 29213): 4 µg/mL (≈ 2.6 µM) | MIC Staphylococcus aureus (GC 1131) (Staphylococcus sp.; strain GC 1131): 8 µg/mL (≈ 5.21 µM) | MIC Staphylococcus aureus (GC 3051) (Staphylococcus sp.; strain GC 3051): 2 µg/mL (≈ 1.3 µM) | MIC Staphylococcus aureus (GC 3053) (Staphylococcus sp.; strain GC 3053): 2 µg/mL (≈ 1.3 µM) | MIC Staphylococcus aureus (GC 4541) (Staphylococcus sp.; strain GC 4541): 8 µg/mL (≈ 5.21 µM) | MIC Staphylococcus aureus (GC 4542) (Staphylococcus sp.; strain GC 4542): 4 µg/mL (≈ 2.6 µM) | MIC Staphylococcus aureus-SMITH (GC 4543) (Staphylococcus sp.; strain GC 4543): 4 µg/mL (≈ 2.6 µM) | MIC Staphylococcus aureus (GC 4544) (Staphylococcus sp.; strain GC 4544): 4 µg/mL (≈ 2.6 µM) | MIC Staphylococcus aureus (GC 4545) (Staphylococcus sp.; strain GC 4545): 4 µg/mL (≈ 2.6 µM) | MIC Coagulase Negative Staphylococcus (GC 4547) (Staphylococcus sp.; strain GC 4547): 4 µg/mL (≈ 2.6 µM) | MIC Coagulase Negative Staphylococcus (GC 4548) (Staphylococcus sp.; strain GC 4548): 2 µg/mL (≈ 1.3 µM) | MIC Coagulase Negative Staphylococcus (GC 4549) (Staphylococcus sp.; strain GC 4549): 4 µg/mL (≈ 2.6 µM) | MIC Coagulase Negative Staphylococcus (GC 4551) (Staphylococcus sp.; strain GC 4551): 4 µg/mL (≈ 2.6 µM) | MIC Coagulase Negative Staphylococcus (GC 6257) (Staphylococcus sp.; strain GC 6257): 2 µg/mL (≈ 1.3 µM) | MIC Escherichia coli (ATCC 25922) (Escherichia coli; strain ATCC 25922): >64 µg/mL | MIC Escherichia coli (GC 4559) (Escherichia coli; strain GC 4559): >64 µg/mL | MIC Escherichi coli (GC 4560) (Escherichia coli; strain GC 4560): 4 µg/mL (≈ 2.6 µM) | MIC Streptococcus agalactiae (GC 4564) (Streptococcus sp.; [1]): <0.06 µg/mL | MIC Streptococcus pneumoniae (ATCC 6301) (Streptococcus sp.; [1]): <0.06 µg/mL | MIC Streptococcus pneumoniae (GC 1894) (Streptococcus sp.; [1]): <0.06 µg/mL | MIC Streptococcus pneumoniae (GC 4565) (Streptococcus sp.; [1]): <0.06 µg/mL | MIC Streptococcus pyogenes (GC 4563) (Streptococcus sp.; [1]): <0.06 µg/mL | MIC Streptococcus pneumoniae (ATCC 6301) (Streptococcus sp.; strain ATCC 6301): <0.06 µg/mL | MIC Streptococcus pneumoniae (GC 1894) (Streptococcus sp.; strain GC 1894): <0.06 µg/mL | MIC Streptococcus pyogenes (GC 4563) (Streptococcus sp.; strain GC 4563): <0.06 µg/mL | MIC Streptococcus agalactiae (GC 4564) (Streptococcus sp.; strain GC 4564): <0.06 µg/mL | MIC Streptococcus pneumoniae (GC 4565) (Streptococcus sp.; strain GC 4565): <0.06 µg/mL | MIC Enterococcus avium (GC 4558) (Enterococcus sp.; [1]): 2 µg/mL (≈ 1.3 µM) | MIC Enterococcus faecalis (ATCC 29212) (Enterococcus sp.; [1]): 8 µg/mL (≈ 5.21 µM) | MIC Enterococcus faecalis (GC 2242) (Enterococcus sp.; [1]): 8 µg/mL (≈ 5.21 µM) | MIC Enterococcus faecalis (GC 2691) (Enterococcus sp.; [1]): 2 µg/mL (≈ 1.3 µM) | MIC Enterococcus faecalis (GC 3059) (Enterococcus sp.; [1]): 4 µg/mL (≈ 2.6 µM) | MIC Enterococcus faecalis (GC 4552) (Enterococcus sp.; [1]): 8 µg/mL (≈ 5.21 µM) | MIC Enterococcus faecalis (GC 4553) (Enterococcus sp.; [1]): 4 µg/mL (≈ 2.6 µM) | MIC Enterococcus faecalis (GC 4554) (Enterococcus sp.; [1]): 4 µg/mL (≈ 2.6 µM) | MIC Enterococcus faecalis (GC 6189) (Enterococcus sp.; [1]): 2 µg/mL (≈ 1.3 µM) | MIC Enterococcus faecium (GC 2243) (Enterococcus sp.; [1]): 2 µg/mL (≈ 1.3 µM) | MIC Enterococcus faecium (GC 4556) (Enterococcus sp.; [1]): 8 µg/mL (≈ 5.21 µM) | MIC Enterococcus faecium (GC 4557) (Enterococcus sp.; [1]): 4 µg/mL (≈ 2.6 µM) | MIC Enterococcus faecalis (ATCC 29212) (Enterococcus sp.; strain ATCC 29212): 8 µg/mL (≈ 5.21 µM) | MIC Enterococcus faecalis (GC 2242) (Enterococcus sp.; strain GC 2242): 8 µg/mL (≈ 5.21 µM) | MIC Enterococcus faecium (GC 2243) (Enterococcus sp.; strain GC 2243): 2 µg/mL (≈ 1.3 µM) | MIC Enterococcus faecalis (GC 2691) (Enterococcus sp.; strain GC 2691): 2 µg/mL (≈ 1.3 µM) | MIC Enterococcus faecalis (GC 3059) (Enterococcus sp.; strain GC 3059): 4 µg/mL (≈ 2.6 µM) | MIC Enterococcus faecalis (GC 4552) (Enterococcus sp.; strain GC 4552): 8 µg/mL (≈ 5.21 µM) | MIC Enterococcus faecalis (GC 4553) (Enterococcus sp.; strain GC 4553): 4 µg/mL (≈ 2.6 µM) | MIC Enterococcus faecalis (GC 4554) (Enterococcus sp.; strain GC 4554): 4 µg/mL (≈ 2.6 µM) | MIC Enterococcus faecium (GC 4556) (Enterococcus sp.; strain GC 4556): 8 µg/mL (≈ 5.21 µM) | MIC Enterococcus faecium (GC 4557) (Enterococcus sp.; strain GC 4557): 4 µg/mL (≈ 2.6 µM) | MIC Enterococcus avium (GC 4558) (Enterococcus sp.; strain GC 4558): 2 µg/mL (≈ 1.3 µM) | MIC Enterococcus faecalis (GC 6189) (Enterococcus sp.; strain GC 6189): 2 µg/mL (≈ 1.3 µM)
SMILES: CC(C)=CCCC(C)=CCOc1ccc(C2OCC3OC(OC4C(CO)OC(Oc5ccc(CC6NC(=O)C(C(C)c7ccccc7)NC(=O)CNC(=O)C(CO)NC(=O)C(C(O)C7CNC(=N)N7C7OC(CO)C(O)C(O)C7O)NC(=O)C(C(O)C7CNC(=N)N7)NC6=O)cc5)C(O)C4O)C(O)C(O)C3O2)cc1 (stereo not drawn) [Example 183, Cyclo[glycyl-β-methylphenylalanyl-O-[4-O-[4,6-O-[4-[(3,7-dimethylocta-2,6-dien-1-yl)oxy]-benzylidene]hexopyranosyl]hexopyranosyl]tyrosyl-3-(2-iminoimidazolidin-4-yl)seryl-3-(3-hexopyranosyl-2-iminoimidazolidin-4-yl)serylseryl]]
MIC Staphylococcus haemolyticus (GC 4546) (Staphylococcus sp.; strain GC 4546): 8 µg/mL (≈ 5.21 µM)

From patent US8247211B2, “Glycopeptide antibiotics” (American Cyanamid Company, priority 2001, dated 2012)
